Test results from patent publication US6902728B1, “Chemokine receptor antagonist and cyclosporin in combined therapy” (Applied Research Systems ARS Holding N.V., priority 1998, dated 2005).
Values joined by “and” are separate entries in the source; they are usually repeats but may differ in a detail not shown here. Identical values can stand only once.

Columns and labels:
[1] = tested on: dermal microvascular endothelium (DMVEC); experiment: In vitro RANTES binding assay on DMVEC (modified ELISA); design: species or system human
Method: The DMVEC were grown to confluency on coated 96 well flat bottom plates, The resultant endothelial monolayer was either left untreated or treated with various concentrations of IL-L1β (0.1 to 5 ng/ml) for 12 h. The RANTES binding assay was a modification of a previously described procedure (Pattison J. et al., 1994, Wiedermann C. J. et al., 1993). Horseradish, peroxidase (HRP) conjugated anti-human-RANTES monoclonal antibody VL1 (0.1 μg) was pre-incubated at 25° C. for 30 min with an excess of recombinant human RANTES (20 μg/ml) in DMVEC growth media (without supplements). The chemokine-antibody complex was added then used to assay the relative chemokine binding capacity of the microvascular endothelium. The endothelial monolayer was gently washed 1× with unsupplemented growth media (25° C.) and the chemokine-antibody complex was added and incubated at 25° C. for 30 min. The wells were then washed four times with media without sera at 25° C. […] The optical density at 406 nm of the plate was determined using an ELISA plate reader.
Since a reduction of monocyte infiltration into vascular luminal spaces represented a prominent feature of Met-RANTES treatment in both transplantation models, we set out to study potential mechanisms for this effect. […] Using an ELISA-like format, the capacity of DMVEC to bind the antigen-mAb complex as opposed to mAb alone was determined. […]

MonoMac 6 cells on DMVEC = experiment: Monocyte recruitment on microvascular endothelium under physiological flow (laminar flow assay); format: cell-based, human
Method: The interaction of monocytes with DMVEC was studied in laminar flow assays performed essentially as descried (Weber C. et al., 1997, Kukerti S. et al., 1997, Piali L. et al., 1998). Briefly, DMVEC were grown to confluence in 35 mm Petri dishes, and stimulated with IL-1β (5 ng/ml) or left untreated for 12 h. The plates were assembled as the lower wall m a parallel wall flow chamber and mounted on the stage of an Olympus IMT-2 inverted microscope with 20× and 40× phase contrast objectives. Monotypes (MonoMac 6 cells) were cultured as reported (Ziegler-Heitbrock H. W. L. et al., 1988, Weber C. et al., 1993) and resuspended at 10^6/ml in assay buffer (HBSS) containing 10 mM Hepes/pH 7.4 and 0.5% HAS. Shortly before assay, 1 mM Mg^2+and 1 mM Ca^2+ was added. The cell suspensions were kept in a heating block at 37° C. during the assay and were perfused into the flow chamber at a rate of 1.5 dyn/cm for 5 min. For inhibition experiments, monocytes were preincubated with Met-RANTES at different concentrations (0.01-1 μg/ml) for 30 min on ice. The number of firmly adherent cells after 5 rain was quantified in multiple fields (at least 5 per experiment) by analysis of images recorded with a long integration JVC 3CCD video camera and a JVC SR L 900 E video recorder, and were expressed as cells/mm^2. The type of adhesion analysed was restricted to primary, i.e. direct interactions of monocytes with endotbelium. As an inverse measure of firm arrest, the number of cells rolling at reduced velocity on endothelium was determined within the last 30 sec. of the 5 min intervals, and were assessed as the percentage of all interactions in the field. The number of cells spreading or transmigrating after 5 min intervals was determined in high power fields as described (Luscinskas F. W. et al., 1994), and expressed as percentage of cells firmly attached.
In an attempt to gain insight into potential mechanisms of action of Met-RANTES, we studied whether a blockade of RANTES receptors could inhibit the firm arrest and diapedesis of monocytes on microvascular endothelium. To this end, we used monocytic MonoMac 6 cells that show the adhesive characteristics and integrin repertoire of mature monocytes, and express several chemokine receptors including CCR1 (Erl W. et al., 1995). DMVEC were grown to confluence on Petri dishes which were either left unstimulated or were activated with IL-1β (5 ng/ml) for 12 h. […] Under such physiological flow conditions, MonoMac 6 cells undergo short periods of rolling, and the attachment of a proportion of cells can be readily converted into shear-resistant arrest. After 5 min of accumulation, the number of MonoMac 6 cells that had undergone firm adhesion to the endothelium was determined (FIG. 2(a)).

[2] = tested on: human microvascular endothelial cells (DMVEC); experiment: FACS analysis of adhesion molecule surface expression on DMVEC; format: cell-based; settings: IL-1β 5 ng/ml, 12 hr; 3 independent experiments
Method: Flow cytometry analysis of dermal microvascular cells (DMVEC) was performed essentially as described (Weber C. et al., 1995). Briefly, confluent DMVEC stimulated with IL-Iβ (5 ng/ml), or left untreated for 12 h, were trypsinized, reacted with IL-saturating concentrations of ICAM-1 mAb RR1/1 (kindly provided by Dr. R. Rothlein), E-selectin mAb, VCAM-1 mAb (both Serotec), or isotype control for 30 min on ice, stained with fluorescein isothiocyanate (FITC)-conjuzated goat anti-mouse IgG (Boehringer Mannheim), and analysed in a FACScan (Becton Dickinson). After correction for unspecific binding, data were expressed as specific mean log fluorescence intensity (sMFI) in channels.

| Substance | RANTES binding to microvascular endothelium following prestimulation ([1]; prestimulation with proinflammatory cytokine (5 ng/ml, 12 hours)) | RANTES binding to microvascular endothelium without prestimulation ([1]; resting DMVEC, HRP-VL1 mAb/RANTES complex) | spreading or transmigration of monocytes (MonoMac 6 cells on DMVEC; after firm arrest, 5 min, IL-1β activated DMVEC) | firm adhesion of monocytic cells to unstimulated microvascular endothelium (MonoMac 6 cells on DMVEC; endothelial cells pre-exposed to RANTES) | firm arrest and accumulation of monocytes on IL-1β-activated microvascular endothelium (MonoMac 6 cells on DMVEC; endothelium pre-exposed to RANTES (10 ng/ml, 30 min), within 5 min) | fraction of monocytes rolling on the activated microvascular endothelium (MonoMac 6 cells on DMVEC; inverse measure of firm arrest, IL-1β activated DMVEC) | ICAM-1 surface expression, SMFI [2] |
| --- | --- | --- | --- | --- | --- | --- | --- |
| RANTES: recombinant human C-C chemokine (regulated upon activation, normal T-cell expressed and secreted) | greatly increased | could bind some RANTES protein | did not alter | no significant effect | markedly enhanced | reduced |  |
| IL-1β: proinflammatory cytokine purchased from Sigma, used to activate DMVEC |  |  |  |  |  |  | 502 channels and 592 channels and 432 channels |
